Measured values: patent publication US20260125346A1, “Isoquinolinone Derivatives and 4H-Quinolizinone Derivatives and Pharmaceutical Compositions Thereof for the Treatment of Disease” (BeOne Medicines I GmbH, priority 2023, published 2026)

Legend:
[1] = system: PI3Kα H1047R mutated cell line T-47D; experiment: Phospho-AKT (Ser473) Inhibition Assay (HTRF), T-47D; type: cell-based; details: for IC50: Homo sapiens, T47D, T-47D, 1 hour treatment, read-out: p-AKT Inhibition assay (S473) IC50 T-47D; for Selectivity: SK-BR-3/T-47D (p-AKT): p-AKT (S473) IC50 ratio
Summary of the method: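 Cells seeded overnight in insulin-supplemented MEM, then treated 1 h with 11-point 1:3 compound dilutions (10 μM to 0.1 nM final, 0.1% DMSO). Lysates assayed for phospho-AKT Ser473 by HTRF; IC50 from 4-parameter logistic fit, normalised to DMSO (max) and 10 μM GDC0077 (min).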

WT cell line SK-BR-3 = experiment: Phospho-AKT (Ser473) Inhibition Assay (HTRF), SK-BR-3; type: cell-based; details: Homo sapiens; SK-BR-3, 1 hour treatment; read-out: p-AKT Inhibition assay (S473) IC50 SK-BR-3
Summary of the method: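 SK-BR-3 (PI3Kα WT) cells seeded overnight in MEM with insulin, then treated 1 h with 11-point 1:3 dilutions (10 μM to 0.1 nM, 0.1% DMSO). Lysates read for phospho-AKT Ser473 by HTRF after 4 h antibody incubation at room temperature. IC50 from 4-parameter fit, % inhibition normalized to DMSO (max) and 10 μM GDC0077 (min).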

SMILES	IC50 [1]	IC50 (WT cell line SK-BR-3)	Selectivity: SK-BR-3/T-47D (p-AKT) [1]
Cc1cc(C(C)Nc2ccccc2C(=O)O)c2cc(-c3cccc4cn(C)nc34)n(C)c(=O)c2c1 (stereo not drawn) [Example 22, 2-((1-(2,7-dimethyl-3-(2-methyl-2H-indazol-7-yl)-1-oxo-1,2-dihydroisoquinolin-5-yl)ethyl)amino)benzoic acid]	1750 nM	> 10000 nM	>5.7
Cc1cc(C(C)Nc2ccccc2C(=O)O)c2cc(-c3ccc4nn(C)cc4c3)n(C)c(=O)c2c1 (stereo not drawn) [Example 19, 2-((1-(2,7-dimethyl-3-(2-methyl-2H-indazol-5-yl)-1-oxo-1,2-dihydroisoquinolin-5-yl)ethyl)amino)benzoic acid]	166 nM	2290 nM	13.8
Cc1cc([C@@H](C)Nc2ccccc2C(=O)O)c2cc(-c3cnc(C(C)(C)O)nc3)n(C)c(=O)c2c1 [Example 67, (R)-2-((1-(3-(2-(2-hydroxypropan-2-yl)pyrimidin-5-yl)-2,7-dimethyl-1-oxo-1,2-dihydroisoquinolin-5-yl)ethyl)amino)benzoic acid]	1540 nM	> 10000 nM	>6.51
Cc1cc(C(C)Nc2ccccc2C(=O)O)c2cc(-c3ccc(C(F)(F)F)nc3)n(C)c(=O)c2c1 (stereo not drawn) [Example 86, 2-((1-(2,7-dimethyl-1-oxo-3-(6-(trifluoromethyl)pyridin-3-yl)-1,2-dihydroisoquinolin-5-yl)ethyl)amino)benzoic acid]	372 nM	> 10000 nM	>27
Cc1cc(C(C)Nc2ccccc2C(=O)O)c2cc(-c3cccnc3)n(C)c(=O)c2c1 (stereo not drawn) [Example 37, 2-((1-(2,7-dimethyl-1-oxo-3-(pyridin-3-yl)-1,2-dihydroisoquinolin-5-yl)ethyl)amino)benzoic acid]	382 nM	> 10000 nM	>26

These reach a lower IC50 [1]. Values come first.

IC50 [1]	IC50 (WT cell line SK-BR-3)	SMILES	Selectivity: SK-BR-3/T-47D (p-AKT) [1]
66.4 nM	2500 nM	Cc1cc(C(C)Nc2ccccc2C(=O)O)c2cc(-c3ccc(F)cc3)n(C)c(=O)c2c1 (stereo not drawn) [Example 8, 2-((1-(3-(4-fluorophenyl)-2,7-dimethyl-1-oxo-1,2-dihydroisoquinolin-5-yl)ethyl)amino)benzoic acid]	37.7
92.4 nM	5070 nM	Cc1cc(C(C)Nc2ccccc2C(=O)O)c2cc(C3=CCN(c4ccccc4)CC3)n(C)c(=O)c2c1 (stereo not drawn) [Example 46, 2-((1-(2,7-dimethyl-1-oxo-3-(1-phenyl-1,2,3,6-tetrahydropyridin-4-yl)-1,2-dihydroisoquinolin-5-yl)ethyl)amino)benzoic acid]	54.8
155 nM	2020 nM	Cc1cc(C(C)Nc2ccccc2S(C)(=O)=O)c2cc(-c3ccccc3)n(C)c(=O)c2c1 (stereo not drawn) [Example 82, 2,7-dimethyl-5-(1-((2-(methylsulfonyl)phenyl)amino)ethyl)-3-phenylisoquinolin-1(2H)-one]	13.0
60 nM	3120 nM	Cc1cc(C(C)Nc2ccccc2C(=O)O)c2cc(-c3ccc(N4CCCC4)cc3)n(C)c(=O)c2c1 (stereo not drawn) [Example 84, 2-((1-(2,7-dimethyl-1-oxo-3-(4-(pyrrolidin-1-yl)phenyl)-1,2-dihydroisoquinolin-5-yl)ethyl)amino)benzoic acid]	52.0
84.3 nM	2040 nM	Cc1cc(C(C)Nc2ccccc2C(=O)O)c2cc(-c3ccn(-c4ccccc4)c3)n(C)c(=O)c2c1 (stereo not drawn) [Example 77, 2-((1-(2,7-dimethyl-1-oxo-3-(1-phenyl-1H-pyrrol-3-yl)-1,2-dihydroisoquinolin-5-yl)ethyl)amino)benzoic acid]	24.2
44.7 nM	2530 nM	Cc1cc(C(C)Nc2ccccc2C(=O)O)c2cc(-c3ccc4c(c3)C3CC3O4)n(C)c(=O)c2c1 (stereo not drawn) [Example 53, 2-((1-(3-(1a,6b-dihydro-1H-cyclopropa[b]benzofuran-5-yl)-2,7-dimethyl-1-oxo-1,2-dihydroisoquinolin-5-yl)ethyl)amino)benzoic acid]	56.6
